SMILES strings stand for the structures.

In general, Km refers to the substrate concentration at which the rate is half of its maximum.

Among the test systems are PfUGT92A8; PfUGT74B4; PfUGT74E7; PfUGT75C6.
Common to all, as to assay: UPLC glycosylation assay, […] nm
What all share (type): biochemical, Periploca forrestii
Holding throughout (details): UDP-glucose as sugar donor; 10 mM PBS pH 8.0, 37 °C

With `O=C1CC(O)(c2ccc(O)cc2)Oc2cc(O)cc(O)c21` (centres unmarked) [2-Hydroxynaringenin], the Michaelis-Menten constant (Km) in the test on PfUGT92A8 stood at 51.4 µM; with PfUGT74B4, 47.8 µM.

In the case of `COc1ccc(-c2cc(=O)c3c(O)cc(O)cc3o2)cc1` [Acacetin], in the test on PfUGT74B4, the Michaelis constant (Km) worked out at 2.23 µM.

For the molecule `O=c1cc(-c2ccc(O)cc2)oc2cc(O)cc(O)c12` [Apigenin], the Michaelis-Menten constant (Km) in the test with PfUGT92A8 was found to be 148 µM; with PfUGT74B4, 50.2 µM; with PfUGT74E7, 5.97 µM; in the test with PfUGT75C6, 29 µM.

For the molecule `O=c1cc(-c2ccc(O)c(O)c2)oc2cc(O)c([C@@H]3O[C@H](CO)[C@@H](O)[C@H](O)[C@H]3O)c(O)c12` [Isoorientin], the Michaelis-Menten constant (Km) came to 134 µM with PfUGT92A8 and 65.2 µM in the test on PfUGT74B4.

Turning to `O=c1cc(-c2ccc(O)cc2)oc2cc(O)c([C@@H]3O[C@H](CO)[C@@H](O)[C@H](O)[C@H]3O)c(O)c12` [Isovitexin], the results for the Michaelis-Menten constant (Km) with PfUGT92A8 and with PfUGT74B4 were 78.2 µM and 58.6 µM, respectively.

As to `O=c1cc(-c2ccc(O)c(O)c2)oc2cc(O)cc(O)c12` [Luteolin], the Km is 252 µM in the test on PfUGT92A8, 58.3 µM in the test on PfUGT74B4, 7.75 µM with PfUGT74E7 and 28.4 µM in the test on PfUGT75C6.

For the molecule `O=c1cc(-c2ccc(O)c(O)c2)oc2c([C@@H]3O[C@H](CO)[C@@H](O)[C@H](O)[C@H]3O)c(O)cc(O)c12` [Orientin], in the test with PfUGT92A8, the Michaelis-Menten constant (Km) was 218 µM.

Turning to `O=C(CCc1ccc(O)cc1)c1c(O)cc(O)cc1O` [Phloretin], the results for the Michaelis constant (Km) with PfUGT92A8 and in the test on PfUGT74B4 were 34.7 µM and 45.6 µM, respectively.

On to `O=c1cc(-c2ccc(O)cc2)oc2c([C@@H]3O[C@H](CO)[C@@H](O)[C@H](O)[C@H]3O)c(O)cc(O)c12` [Vitexin], for which the figures for the Km in the test on PfUGT92A8 and in the test on PfUGT74B4 were 94.2 µM and 307 µM, respectively.

The values are drawn from article PMC10940802 (Computational and Structural Biotechnology Journal, 2024).
